Counter-ions that a name gives are not always drawn.

`CNCCC(c1ccccc1)c1cccc2[nH]ncc12` (stereo not shown) (as salt: HCl) [compound 49, [3-(1H-Indazol-4-yl)-3-phenyl-propyl]-methyl-amine] gave a melting point of 130.6 to 133.1 °C.
Under `CNCC[C@H](c1ccccc1)c1cccc2cn[nH]c12` (as salt: TFA) [compound 55, [(R)-3-(1H-Indazol-7-yl)-3-phenyl-propyl]-methyl-amine] stands 61.9 to 65.7 °C; under `CNCC[C@@H](c1ccccc1)c1cccc2cn[nH]c12` (as salt: TFA) [compound 56, [(S)-3-(1H-Indazol-7-yl)-3-phenyl-propyl]-methyl-amine], 62 to 68.1 °C.
`CNCCC(c1ccc2[nH]ccc2c1)c1ccc2nccnc2c1` (stereo not shown) [compound 123, [3-(1H-lndol-5-yl)-3-quinoxalin-6-yl-propyl]-methyl-amine] registered a melting point of 60.3 to 62 °C.
Under `NCCC(c1ccc2ncccc2c1)c1ccc2[nH]ccc2c1` (stereo not shown) [compound 120, 3-(1H-Indol-5-yl)-3-quinolin-6-yl-propylamine] stands 60.9 to 62.9 °C; under `CNCCC(c1ccc2cc[nH]c2c1)c1ccccn1` (stereo not shown) (as salt: HCl) (hydrate or solvate) [compound 21], above 300 °C; under `CNCCC(c1cccc(Cl)c1)c1ccc2cc[nH]c2c1` (stereo not shown) (as salt: HCl) [compound 36, [3-(3-Chloro-phenyl)-3-(1H-indol-6-yl)-propyl]-methyl-amine], 62 to 63 °C.
The compound `CNCCC(c1cnc2ccccc2c1)c1ccc2[nH]ccc2c1` (stereo not shown) [compound 137, [3-(1H-Indol-5-yl)-3-quinolin-3-yl-propyl]-methyl-amine] came in with a melting point of 56 to 58 °C.
Under `CNCCC(c1ccccc1)c1ccc2[nH]nc(C)c2c1` (stereo not shown) (as salt: TFA) [compound 58, Methyl-[3-(3-methyl-1H-indazol-5-yl)-3-phenyl-propyl]-amine] stands 64.5 to 66 °C; under `CNCCC(c1ccc2[nH]ccc2c1)c1ccc2[nH]ccc2c1` [compound 111, [3,3-Bis-(1H-indol-5-yl)-propyl]-methyl-amine], 142 to 152 °C.

(Values after patent US7803830B2, “3-amino-1-arylpropyl indoles and AZA-substituted indoles and uses thereof” (Roche Palo Alto LLC, priority 2005, dated 2010).)
